Laboratory results taken from patent US20130029962A1, “Substituted Heteroaromatic Pyrazole-Containing Carboxamide and Urea Compounds as Vanilloid Receptor Ligands” (Gruenenthal GmbH, priority 2011, published 2013).

Biological target: T1, vanilloid receptor 1 (VR1/TRPV1 receptor) (Homo sapiens, UniProt Q8NER1)
T1 construct: expressed in transfected cells; host or cells: CHO K1
Experiment: Functional testing on the vanilloid receptor 1 (VR1/TRPV1): FLIPR Ca2+ influx assay, displacement of capsaicin
Assay type: cell-based, human being
Design: key to mode of action at VR1/TRPV1 (AG, pAG, NE), Cap: AG=agonist; NE=no effect; pAG=partial agonist
Details: 5 μM compound; capsaicin (Cap); human being; read-out: inhibition (as a percentage) at the concentration after @, Cap
Method: Furthermore, preference may be given to compounds according to the invention that cause a 50 percent displacement of capsaicin, which is present at a concentration of 100 nM, in a FLIPR assay with CHO K1 cells which were transfected with the human VR1 gene at a concentration of less than 2,000 nM, preferably less than 1,000 nM, particularly preferably less than 300 nM, most particularly preferably less than 100 nM, even more preferably less than 75 nM, additionally preferably less than 50 nM, most preferably less than 10 nM.
In the process, the Ca^2+ influx is quantified in the FLIPR assay with the aid of a Ca^2+-sensitive dye (type Fluo-4, Molecular Probes Europe BV, Leiden, the Netherlands) in a fluorescent imaging plate reader (FLIPR, Molecular Devices, Sunnyvale, USA), as described hereinafter. […]
The number of cells in the suspension is set to 3×10^5 per mL and 150 μL of this suspension are in each case introduced into a recess in the cell culture plates coated as described hereinbefore. In the incubator the plates are left for two to three days at 37° C., 5% by volume of CO2 and 95% relative humidity. Subsequently, the cells are loaded with 2 μM of Fluo-4 and 0.01% by volume of Pluronic F127 (Molecular Probes Europe BV, Leiden, the Netherlands) in HBSS buffer (Hank's buffered saline solution, Gibco Invitrogen GmbH, Karlsruhe, Germany) for 30 min at 37° C., washed 3 times with HBSS buffer and after further incubation for 15 minutes at room temperature used for Ca^2+ measurement in a FLIPR assay. The Ca^2+-dependent fluorescence is in this case measured before and after the addition of substances (λex=488 nm, λem=540 nm). Quantification is carried out by measuring the highest fluorescence intensity (FC, fluorescence counts) over time.
The FLIPR protocol consists of 2 substance additions. First the compounds to be tested (10 μM) are pipetted onto the cells and the Ca^2+ influx is compared with the control (capsaicin 10 μM). This provides the result in % activation based on the Ca^2+ signal after the addition of 10 μM of capsaicin (CP). After 5 minutes' incubation, 100 nM of capsaicin are applied and the Ca^2+ influx is also determined. Desensitising agonists and antagonists lead to suppression of the Ca^2+ influx. The % inhibition is calculated compared to the maximum achievable inhibition with 10 μM of capsazepine. Triple analyses (n=3) are carried out and repeated in at least 3 independent experiments (N=4).
Starting from the percentage displacement caused by different concentrations of the compounds to be tested of general formula I, IC50 inhibitory concentrations which cause a 50-percent displacement of capsaicin were calculated. Ki values for the test substances were obtained by conversion by means of the Cheng-Prusoff equation (Cheng, Prusoff; Biochem. Pharmacol. 22, 3099-3108, 1973).
The affinity of the compounds according to the invention for the vanilloid receptor 1 (VR1/TRPV1 receptor) was determined as described above (pharmacological method I).

T1 sequence (Q8NER1 whole entry): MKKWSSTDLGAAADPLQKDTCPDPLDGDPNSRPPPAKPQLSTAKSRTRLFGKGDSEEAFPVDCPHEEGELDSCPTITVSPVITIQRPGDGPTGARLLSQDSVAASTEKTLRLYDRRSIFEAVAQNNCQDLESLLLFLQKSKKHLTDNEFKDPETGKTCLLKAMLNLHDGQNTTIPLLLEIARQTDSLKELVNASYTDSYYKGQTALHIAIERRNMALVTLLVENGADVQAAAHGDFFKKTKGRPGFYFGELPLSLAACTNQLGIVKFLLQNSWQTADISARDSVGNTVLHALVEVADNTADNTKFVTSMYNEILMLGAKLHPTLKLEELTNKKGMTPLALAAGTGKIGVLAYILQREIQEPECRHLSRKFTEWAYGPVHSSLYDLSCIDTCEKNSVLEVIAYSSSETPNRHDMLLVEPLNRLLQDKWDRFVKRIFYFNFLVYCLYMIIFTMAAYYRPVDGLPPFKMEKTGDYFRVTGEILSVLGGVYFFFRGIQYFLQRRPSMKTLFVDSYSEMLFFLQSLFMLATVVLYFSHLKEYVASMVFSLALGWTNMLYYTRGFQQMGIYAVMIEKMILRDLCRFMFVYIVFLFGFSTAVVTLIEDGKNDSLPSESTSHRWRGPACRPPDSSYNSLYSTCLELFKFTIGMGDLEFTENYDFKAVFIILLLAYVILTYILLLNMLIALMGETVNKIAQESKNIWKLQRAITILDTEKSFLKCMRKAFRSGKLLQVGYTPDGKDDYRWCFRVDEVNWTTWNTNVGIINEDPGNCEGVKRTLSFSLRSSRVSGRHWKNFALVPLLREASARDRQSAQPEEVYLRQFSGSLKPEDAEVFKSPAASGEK

inhibition at 5 µM [%] | SMILES
55 | COCCN(C)c1ccc(C(C)C(=O)NCc2cc(C(F)(F)F)nn2-c2cccc(Cl)c2)cn1 (centres unmarked) [Example 88, N-((1-(3-chlorophenyl)-3-(trifluoromethyl)-1H-pyrazol-5-yl)methyl)-2-(6-((2-methoxyethyl)(methyl)amino)pyridin-3-yl)propanamide]
31 | COCCN(C)c1ccc(NC(=O)NCc2cc(C(F)(F)F)nn2-c2cccc(Cl)c2)cn1 [Example 89, 1-((1-(3-chlorophenyl)-3-(trifluoromethyl)-1H-pyrazol-5-yl)methyl)-3-(6-((2-methoxyethyl)(methyl)amino)pyridin-3-yl)urea]
98 | CC(C(=O)NCc1cc(C(C)(C)C)nn1-c1cccc(Cl)c1)c1ccc(NC(=O)c2ccccc2)nc1 (centres unmarked) [Example 91, N-(5-(1-((3-tert-butyl-1-(3-chlorophenyl)-1H-pyrazol-5-yl)methylamino)-1-oxopropan-2-yl)pyridin-2-yl)benzamide]
30 | CS(=O)(=O)Nc1ccc(NC(=O)NCc2cc(C(F)(F)F)nn2-c2cccc(Cl)c2)cn1 [Example 101, N-(5-(3-((1-(3-chlorophenyl)-3-(trifluoromethyl)-1H-pyrazol-5-yl)methyl)ureido)pyridin-2-yl)methanesulfonamide]

Same assay, conditions: capsaicin (Cap) as stimulus; Ki from IC50 by Cheng-Prusoff; read-out: (f) Ki (human being) [nM] Cap

SMILES | Ki [nM]
O=C(NCc1cc(C(F)(F)F)nn1-c1ccc(F)c(F)c1)Nc1ccc(NCCO)nc1 [Example 79, 1-((1-(3,4-difluorophenyl)-3-(trifluoromethyl)-1H-pyrazol-5-yl)methyl)-3-(6-(2-hydroxyethylamino)pyridin-3-yl)urea] | 26
Cc1cccc(-n2nc(C(F)(F)F)cc2CNC(=O)Nc2ccc(NCCO)nc2)c1 [Example 81, 1-(6-(2-hydroxyethylamino)pyridin-3-yl)-3-((1-m-tolyl-3-(trifluoromethyl)-1H-pyrazol-5-yl)methyl)urea] | 12
CN(CCO)c1ccc(NC(=O)NCc2cc(C(C)(C)C)nn2-c2cccc(Cl)c2)cn1 [Example 87, 1-((3-tert-butyl-1-(3-chlorophenyl)-1H-pyrazol-5-yl)methyl)-3-(6-((2-hydroxyethyl)(methyl)amino)pyridin-3-yl)urea] | 17
CN(CCO)c1ccc(NC(=O)NCc2cc(C(F)(F)F)nn2-c2cccc(Cl)c2)cn1 [Example 90, 1-((1-(3-chlorophenyl)-3-(trifluoromethyl)-1H-pyrazol-5-yl)methyl)-3-(6-((2-hydroxyethyl)(methyl)amino)pyridin-3-yl)urea] | 44
CC(C(=O)NCc1cc(C(C)(C)C)nn1-c1cccc(Cl)c1)c1ccc(NC(=O)c2ccc(F)cc2)nc1 (centres unmarked) [Example 93, N-(5-(1-((3-tert-butyl-1-(3-chlorophenyl)-1H-pyrazol-5-yl)methylamino)-1-oxopropan-2-yl)pyridin-2-yl)-4-fluorobenzamide] | 2
CC(C(=O)NCc1cc(C(F)(F)F)nn1-c1cccc(Cl)c1)c1ccc(NC(=O)c2ccc(F)cc2)nc1 (centres unmarked) [Example 94, N-(5-(1-((1-(3-chlorophenyl)-3-(trifluoromethyl)-1H-pyrazol-5-yl)methylamino)-1-oxopropan-2-yl)pyridin-2-yl)-4-fluorobenzamide] | 4
CC(C(=O)NCc1cc(C(F)(F)F)nn1-c1cccc(Cl)c1)c1ccc(NC(=O)c2ccc(Cl)cc2)nc1 (centres unmarked) [Example 96, 4-chloro-N-(5-(1-((1-(3-chlorophenyl)-3-(trifluoromethyl)-1H-pyrazol-5-yl)methylamino)-1-oxopropan-2-yl)pyridin-2-yl)benzamide] | 3
CC(C(=O)NCc1cc(C(F)(F)F)nn1-c1cccc(Cl)c1)c1ccc(NS(C)(=O)=O)nc1 (centres unmarked) [Example 99, N-((1-(3-chlorophenyl)-3-(trifluoromethyl)-1H-pyrazol-5-yl)methyl)-2-(6-(methylsulfonamido)pyridin-3-yl)propanamide] | 11
CC(C(=O)NCc1cc(C(F)(F)F)nn1-c1cccc(F)c1)c1ccc(NS(C)(=O)=O)nc1 (centres unmarked) [Example 100, N-((1-(3-fluorophenyl)-3-(trifluoromethyl)-1H-pyrazol-5-yl)methyl)-2-(6-(methylsulfonamido)pyridin-3-yl)propanamide] | 37
CC(C(=O)NCc1cc(C(C)(C)C)nn1-c1cccc(Cl)c1)c1cnc(NS(C)(=O)=O)c(F)c1 (centres unmarked) [Example 102, N-((3-tert-butyl-1-(3-chlorophenyl)-1H-pyrazol-5-yl)methyl)-2-(5-fluoro-6-(methylsulfonamido)pyridin-3-yl)propanamide] | 8
COc1cc(C(C)C(=O)NCc2cc(C(F)(F)F)nn2-c2cccc(Cl)c2)cnc1NS(C)(=O)=O (centres unmarked) [Example 104, N-((1-(3-chlorophenyl)-3-(trifluoromethyl)-1H-pyrazol-5-yl)methyl)-2-(5-methoxy-6-(methylsulfonamido)pyridin-3-yl)propanamide] | 3
CN(C)c1ncc(NC(=O)NCc2cc(C(C)(C)C)nn2-c2cccc(Cl)c2)cc1C(F)(F)F [Example 107, 1-((3-tert-butyl-1-(3-chlorophenyl)-1H-pyrazol-5-yl)methyl)-3-(6-(dimethylamino)-5-(trifluoromethyl)pyridin-3-yl)urea] | 5
CC(C)(C)c1cc(CNC(=O)Nc2ccc(N3CCC3)nc2)n(-c2cccc(Cl)c2)n1 [Example 108, 1-(6-(azetidin-1-yl)pyridin-3-yl)-3-((3-tert-butyl-1-(3-chlorophenyl)-1H-pyrazol-5-yl)methyl)urea] | 43

The remaining lines, values ahead:

Ki [nM] | SMILES
8 | O=C(NCc1cc(C(F)(F)F)nn1-c1cccc(Cl)c1)Nc1ccc(NCCO)nc1 [Example 71, 1-((1-(3-chlorophenyl)-3-(trifluoromethyl)-1H-pyrazol-5-yl)methyl)-3-(6-(2-hydroxyethylamino)pyridin-3-yl)urea]
17 | O=C(NCc1cc(C2CC2)nn1-c1cccc(Cl)c1)Nc1ccc(NCCO)nc1 [Example 72, 1-((1-(3-chlorophenyl)-3-cyclopropyl-1H-pyrazol-5-yl)methyl)-3-(6-(2-hydroxyethylamino)pyridin-3-yl)urea]
26 | CC(C(=O)NCc1cc(C(F)(F)F)nn1-c1cccc(Cl)c1)c1ccc(NC(=O)c2ccccc2)nc1 (centres unmarked) [Example 92, N-(5-(1-((1-(3-chlorophenyl)-3-(trifluoromethyl)-1H-pyrazol-5-yl)methylamino)-1-oxopropan-2-yl)pyridin-2-yl)benzamide]
2 | CC(C(=O)NCc1cc(C(C)(C)C)nn1-c1cccc(Cl)c1)c1ccc(NC(=O)c2ccc(Cl)cc2)nc1 (centres unmarked) [Example 95, N-(5-(1-((3-tert-butyl-1-(3-chlorophenyl)-1H-pyrazol-5-yl)methylamino)-1-oxopropan-2-yl)pyridin-2-yl)-4-chlorobenzamide]
8 | CC(C(=O)NCc1cc(C(C)(C)C)nn1-c1cccc(Cl)c1)c1ccc(NS(C)(=O)=O)nc1 (centres unmarked) [Example 98, N-((3-tert-butyl-1-(3-chlorophenyl)-1H-pyrazol-5-yl)methyl)-2-(6-(methylsulfonamido)pyridin-3-yl)propanamide]
12 | CC(C(=O)NCc1cc(C(F)(F)F)nn1-c1cccc(Cl)c1)c1cnc(NS(C)(=O)=O)c(F)c1 (centres unmarked) [Example 103, N-((1-(3-chlorophenyl)-3-(trifluoromethyl)-1H-pyrazol-5-yl)methyl)-2-(5-fluoro-6-(methylsulfonamido)pyridin-3-yl)propanamide]
2 | COc1cc(C(C)C(=O)NCc2cc(C(C)(C)C)nn2-c2cccc(Cl)c2)cnc1NS(C)(=O)=O (centres unmarked) [Example 105, N-((3-tert-butyl-1-(3-chlorophenyl)-1H-pyrazol-5-yl)methyl)-2-(5-methoxy-6-(methylsulfonamido)pyridin-3-yl)propanamide]
25 | CN(C)c1ncc(NC(=O)NCc2cc(C(F)(F)F)nn2-c2cccc(Cl)c2)cc1C(F)(F)F [Example 106, 1-((1-(3-chlorophenyl)-3-(trifluoromethyl)-1H-pyrazol-5-yl)methyl)-3-(6-(dimethylamino)-5-(trifluoromethyl)pyridin-3-yl)urea]

Same assay, conditions: capsaicin (Cap); human being

mode of action at VR1/TRPV1 (AG, pAG, NE), Cap | SMILES
AG | CC(C(=O)NCc1cc(C(C)(C)C)nn1-c1cccc(Cl)c1)c1ccc(NC(=O)c2ccccc2)nc1 (centres unmarked) [Example 91, N-(5-(1-((3-tert-butyl-1-(3-chlorophenyl)-1H-pyrazol-5-yl)methylamino)-1-oxopropan-2-yl)pyridin-2-yl)benzamide]
